Series [1] relates to Cerebellar Granule Cells. Briefly: Protection of cerebellar granule cells against Fe2+-induced oxidation (TBARS). As to conditions: Rattus norvegicus, 0.75 h, read-out: TBARS IC50. The format is cell-based. Here is the method: (§1) 3. Protection of cerebellar granule cells against oxidative damage
(§2) The cyclic nitrones were tested for their ability to protect primary cultures of cerebellar granule cells against oxidative injury induced by treatment with Fe^2+. Cerebellar granule cell cultures were prepared from 8 day old rats as previously described. […] Briefly, 8-10 cerebella were removed and placed in a Krebs-Ringer bicarbonate medium supplemented with BSA and MgSO4. Cerebella were finely chopped and digested with a trypsin/Krebs-Ringer solution. Cells were then dispersed by trituration in Krebs-Ringer containing DNase, MgSO4 and trypsin inhibitor followed by plating at a density of 1×10^6 cells/well in poly-l-lysine coated plate in MEM/10% fetal bovine serum/KCl/glutamine/gentamicin. Media was replaced at 24 hours and cytosine arabinoside added. Experiments were conducted with cells 8-10 days in vitro.
(§3) The nitrones were added in either Locke's solution or in 20% β-cyclodextrins and allowed to incorporate into the cells for 30 min. At this time 20 μl of a 5 mM stock solution of ferrous chloride was added for a final concentration of 100 μM. After 45 min the media was removed and added to 1.5 ml of TBA/TCA (2:1) with 25 μl of 2% BHT and TBARS determined as described above. The absorbance of the control cells (no iron) was subtracted from the iron treated cells and this value taken as the denominator to determine the concentration of nitrone required to inhibit oxidation by 50%.

In series [2] the test system is Cerebellar Granule Cells. The series is described as follows: Protection of cerebellar granule cells against Fe2+-induced damage (viability, MTT). The following applies: Rattus norvegicus, read-out: Viability IC50. In kind it is cell-based. The protocol:
as §1, §2, §3
Fresh MEM media was added to the cells along with 100 μl of MTT. After 4 hrs, 1 ml of cold isopropanol/0.04 N HCl was added, the cells scraped, mixed well and transferred to 13×100 mm glass test tubes. The absorbance resulting from mitochondrial reduction of the MTT (570 nm minus 630 nm) was measured as an assessment of viability. The % cell death was determined by comparison to the absorbance of cells to which no iron was added.

The subject of series [3] is loss of cell viability. The following applies: prior administration for vitamin E; cited from earlier work.
Series [4] concerns ischemia-induced damage. As to conditions: vitamin E supplementation; cited from earlier work.
Series [5] is described as follows: Inhibition of lipid peroxidation (soybean phosphatidylcholine liposomes). As to conditions: Fe2+-initiated, 37° C., 15 min time point, TBARS, read-out: LIPID OX (IC50). In kind it is biochemical. The protocol:
1. Inhibition of lipid peroxidation
For determination of the ability to inhibit lipid peroxidation, liposomes were prepared from soybean phosphatidylcholine by ethanol injection. An aliquot of phosphatidylcholine was dried in a small glass vial under N2. The lipid was resolubilized in ethanol at a volume of 10 ml per ml of liposomes. Typically, 8 ml volumes of liposomes were prepared per tube and then all preparations were combined to provide a homogenous mixture for the assay. The ethanol containing the lipid was taken up in a Hamilton syringe and injected into the appropriate volume of 50 mM NaCl/10 mM Tris, pH 7.0 at 37° C. with mixing to achieve a final lipid concentration of 0.563 mM.
The liposomes were added to 25 ml beakers in a Dubnoff metabolic shaker at 37° C. To the liposomes were added the test compound (in ethanol or buffer), histidine-FeCl3 250:[…] final), FeCl2 ([…] final, prepared in N2 purged water) and sufficient buffer to achieve a final lipid concentration of 0.5 mM. Oxidations were initiated by the addition of Fe^2^+ and carried out under an air atmosphere with shaking. One ml aliquots were removed at 0,2,4,6,8,10,12 and 15 min and added to 2 ml of 0.67% thiobarbituric acid : 10% trichloroacetic acid (2:1) in 0.25 N HCl containing 0.05 ml of 2% BHT to terminate oxidation. Thomas, C. E., McLean, L. R., Parker, R. A., and Ohlweiler, D. F. (1992) Lipids 27, 543-550.
The samples were heated at 100° C. for 20 min in 13 x 100 mm borosilicate glass tubes covered with marbles to prevent evaporation. After cooling, the tubes were centrifuged at 3,000 rpm for 10 min and the absorbance of the resultant supernatant read at 532 nm-580 nm. Quantitation of thiobarbituric acid reactive substances (TBARS) was determined by comparison to a standard curve of malondialdehyde equivalents generated by acid catalyzed hydrolysis of 1,1,3,3-tetraethoxypropane. The IC50 was determined using the 15 min time point with the computer program GraphPad INPLOT 4. This program uses a nonlinear regression with sigmoidal curve on a semilogarithmic scale.

A short description of series [6]: OH radical trapping (inhibition of the bleaching of p-NDA, primary assay). The format is biochemical. As to conditions: for IC50: IC50, Fenton chemistry (Fe2+/H2O2), pH 7.0. Here is the method: 2. Assessment as .OH Traps
A. Inhibition of the bleaching of p-NDA
Cyclic nitrones were evaluated for .OH trapping activity by a variety of tests. The primary assay was dependent upon the ability of the compounds to inhibit the .OH-dependent bleaching of p-NDA. Bors, W., Michel, C., and Saran, M. (1979) J. Biochem. 95, 621-627. The p-NDA was prepared at 1 mM in 50 mM NaCl, pH 7.0. The hydroxyl radical was generated using Fenton chemistry (Fe^2+ /H2 O2). FeCl2 is dissolved in N2 purged, double distilled […] to a final concentration of 2.5 mM. H2 O2 was prepared from a 30% stock solution (8.8 M) at 1.25 mM in the buffer. Test compounds were solubilized in buffer or ethanol at a concentration of 1 M or 5 M, depending upon solubility.
Assay mixtures in glass cuvettes contained solutions of 0.02 ml of H2 O2, 0.02 ml of test compound, 0.10 ml of p-NDA and 50 mM NaCl, pH 7.0 to a final volume of 0.98 ml. The oxidation was initiated by the addition of 0.02 ml of Fe^2+ and the bleaching of p-NDA was monitored as the loss in absorbance at 440 nm for 100 sec. To generate concentration curves, serial dilutions of the test compounds were made such that a constant volume of 0.02 ml was added to the reaction mixture. Ethanol itself is an .OH trap, thus controls contained an equal volume of ethanol for any test compound requiring this vehicle. The IC50 values for the nitrones were determined by GraphPad InPlot 4 and represent the amount of spin trap required to inhibit the bleaching of p-NDA by 50%.

The nature of series [7]: Duration of in vivo activity of compound A. Also on record: species or system rats. The following applies: relative to the sedative effect.
A short description of series [8]: Sedation in rats. In kind it is in vivo.
For series [9] the following is noted: compared with PBN; cited from earlier work.
The conditions of series [10]: compared with PBN; cited from earlier work. The source holds these as a separate data set.
The nature of series [11]: Solubility. The following applies: for water solubility: noted during work-up. The format is physicochemical.
Series [12] deals with neuronal cell loss and neurologic deficits. The following applies: stroke, gerbil model; cited from earlier work.
The subject of series [13] is endotoxin associated mortality. The following applies: rats; cited from earlier work.
The conditions of series [14]: ESR spectroscopy, gerbils; cited from earlier work.
Series [15] in a line: Metabolites of A isolated from an in vivo experiment. The following applies: relative to Metabolite 2. The source says:
Indeed, from the onset, a primary goal has been to find a potent antioxidant which lacks this side effect observed with compound A. In this regard, the following observations were of special interest. […] In order to investigate this possibility, the major metabolite C and a minor, possibly secondary, metabolite (Metabolite 2) were isolated from an in vivo experiment, purified by HPLC, and assigned the structures shown below (FIG. 3). [drawing 16]

Setting [16] is: Fe2+-induced damage, 100 μM ferrous chloride, 45 min.
[17] abbreviates: Fe2+-induced damage, MTT reduction.

Regarding `CC1(C)C(=O)c2ccccc2C=[N+]1[O-]` [Compound 77, 3,3-Dimethyl-3H-isoquinolin-4-one, N-oxide], the IC50 in series [1] (setting [16]) was found to be 830 µM; in series [2] (setting [17]), 385 µM.
In the same order, the values of `CC(=O)OC1c2ccccc2C=[N+]([O-])C1(C)C` (centres unmarked) [Compound 76, 4-Acetoxy-3,3-dimethyl-3,4-dihydroisoquinoline, N-oxide] are 839 µM and 864 µM.
For `O=C1c2ccccc2C=[N+]([O-])C12CCCCC2` [E, 3H-isoquinolin-4-one-3-spirocyclohexane, N-oxide], the IC50 in series [1] (setting [16]) stood at 37 µM; in series [2] (setting [17]) it was 39 µM.
In the same order, the values of `Cc1cc2c(c(C)c1O)CC(C)(C)[N+]([O-])=C2` [Compound 15, 3,3,5,7-Tetramethyl-3,4-dihydroisoquinolin-6-ol N-oxide] are 220 µM and 190 µM.
As to `O=C1c2ccccc2C=[N+]([O-])C12CCCC2` [G, 3H-isoquinolin-4-one-3-spirocyclopentane, N-oxide], the values for the IC50 in series [1] (setting [16]) and in series [2] (setting [17]) were 102 µM and 105 µM, respectively.
In the same order, the values of `[O-][N+]1=Cc2ccccc2C(O)C12CCCCC2` (centres unmarked) [D, 3,4-dihydroisoquinolin-4-ol-3-spirocyclohexane, N-oxide] are 520 µM and 588 µM.
For the molecule `Cc1c(C)c2c(c(C)c1O)CCC(C)(CCCC(C)CCCC(C)CCCC(C)C)O2` (stereo not drawn) [vitamin E, α-tocopherol], the “protection against loss of cell viability” value in series [3] is “partial protection”. Moreover, the “protective effect against ischemia-induced damage” value in [4] is on record as “some protective effect”.
As for `CC1(C)Cc2ccc3ccccc3c2C=[N+]1[O-]` [Compound 10, 3,3-Dimethyl-3,4-dihydrobenzo[h]isoquinoline N-oxide], in series [5], the half-inhibitory concentration (IC50) amounted to 69 µM.
Regarding `CC1(C)Cc2sccc2C=[N+]1[O-]` [Compound 48, 6,6-Dimethyl-6,7-dihydrothieno[3,2-c]pyridine N-oxide], the figures for the concentration for half-maximal inhibition (IC50) in series [5] and in series [6] were 1590 µM and 14400 µM, respectively.
For `CC1(C)Cc2ccccc2C=[N+]1[O-]` [A, 3,4-dihydro-3,3-dimethylisoquinoline N-oxide], the IC50 in series [5] amounted to 1670 µM; in series [6], 2830 µM. Besides, in series [7], the “duration of in vivo activity” value is “persists for a considerably longer period of time”. The sedation entry in series [8] (high doses in rats) is listed as “causes sedation when administered in high doses in rats”. Besides, the “time course of sedative effect” value in series [8] (rats) is “peaks and declines rapidly”. In series [9], the “inhibition of lipid oxidation relative to PBN” value was “more potent inhibitors of lipid oxidation”. Besides, the “hydroxyl radical trapping relative to PBN” value in series [10] was “better hydroxyl radical traps”.
Consider `CC1(C)Cc2c(ccc3ccccc23)C=[N+]1[O-]` [Compound 9, 2,2-Dimethyl-1,2-dihydrobenzo[f]isoquinoline N-oxide], for which the solubility result in series [11] (reason for OH radical trapping not measured) was “low solubility”. Besides, the half-inhibitory concentration (IC50) in series [5] was determined as 100 µM.
Take `[O-][N+]1=Cc2ccccc2C(O)C12CCCC2` (centres unmarked) [F, 3,4-dihydroisoquinolin-4-ol-3-spirocyclopentane, N-oxide]: the figures for the IC50 in [1] (setting [16]) and in series [2] (setting [17]) were 771 µM and 817 µM, respectively.
Take `[O-][N+]1=Cc2ccccc2CC12CCCCC2` [B, spiro [cyclohexane-1,3']3,4-dihydroisoquinoline N-oxide, reference compound]: the “inhibition of lipid oxidation relative to PBN” value in [9] was “more potent inhibitors of lipid oxidation”. For the same molecule, the “hydroxyl radical trapping relative to PBN” value in [10] is listed as “better hydroxyl radical traps”.
As for `Cc1cc2c(c(C)c1O)CC(C)(C)N=C2` [Compound 38, 3,3,5,7-Tetramethyl-3,4-dihydroisoquinolin-6-ol], the water solubility result in series [11] was “high water solubility”.
Regarding `CC(C)(C)[N+]([O-])=Cc1ccccc1` [PBN, alpha-phenyl-tert-butyl nitrone], the “effect on neuronal cell loss and neurologic deficits” value in series [12] was “can significantly ameliorate neuronal cell loss and neurologic deficits”. Also, the “reduction of endotoxin associated mortality” value in series [13] is “reduce endotoxin associated mortality in rats”. In addition, the IC50 in series [1] and in [2] was 2600 µM throughout. Also, the “trapping of lipid-derived radicals in cortical tissue” value in [14] is listed as “trap lipid-derived radicals in cortical tissue”.
For the molecule `CC1(C)Cc2ccsc2C=[N+]1[O-]` [Compound 13, 5,5-Dimethyl-4,5-dihydrothieno[2,3-c]pyridine N-oxide], the IC50 in [5] came to 1720 µM; in [6], 4340 µM.
With `CC1(C)C(O)c2ccccc2C=[N+]1[O-]` (centres unmarked) [C, 3,3-Dimethyl-3,4-dihydroisoquinolin-4-ol, N-oxide], the “abundance of metabolite in vivo” value in series [15] is given as “much more abundant in vivo than Metabolite 2”. Moreover, in series [11], the water solubility result is “relatively high water solubility”. Besides, the concentration for half-maximal inhibition (IC50) in [1] (setting [16]) amounted to 1900 µM; in series [2] (setting [17]) it was 1550 µM.
In the case of `CC1(C)Cc2ccoc2C=[N+]1[O-]` [Compound 53, 5,5-Dimethyl-4,5-dihydrofuro[2,3-c]pyridine N-oxide], the concentration for half-maximal inhibition (IC50) in [5] was 1070 µM. For the same molecule, in series [6] (at 20 mM), the “OH RADICAL TRAPPING (effect)” value was “no effect”.

In general, IC50 refers to the concentration needed to halve the response being measured.

The values above are taken from patent US5962469A, “Cyclic nitrones” (Hoechst Marion Roussel Inc., priority 1997, dated 1999).
